One test concerns B16/F10 melanoma. The test is described as follows: B16/F10 melanoma tumor growth. Conditions: 45 mg/kg on day 0, day 4 and day 8. The class given is in vivo, mice. The source says: FIG. 6. Effect of BLN101 on tumor growth inhibition. […] To validate the therapeutic efficacy of AK750, we randomly sorted mice bearing B16/F10 melanoma into three groups and treated each group with one of the following: blank vehicle (control); AK750; and BLZ945. The mice injected with vehicle formed large tumors by Day 10 (the day of first injection being Day 0), and consequently were killed. The animals in the other groups were also killed at the same time point to evaluate the effect of the treatments on tumor pathology. […] Changes in body weight were within the acceptable limits.
(§1) Activity Studies of Compound of Formula I • Efficacy of BLN101 vs BLZ945 on the ability to inhibit CSF1R in vitro is studied. RAW264.7 cells are treated with BLZ945 (67 nM) or BLN101 (67 nM) for different time points, at the end of which the cells were exposed to CSF1 (10 ng/ml) for 20 min. The cells were then lysed and analyzed for phosphorylated CSF1R levels. […] Efficacy of BLN101 (in formulation AK750) vs BLZ945 on increase in iNOS expression in vitro is studied. It is observed that exposure to Tumor Conditioned Media over 24 h decreases INOS levels. […] At different time-points, the cells are harvested and analyzed the population for M1 (MHCII+, CD86+, CD80+) or M2 (CD206+) markers using fluorescence activated cell sorting (FIG. 5d). […]

The next test relates to monocytes. The test is described as follows: M1/M2 marker expression in IL-4 treated monocytes (FACS). The class given is cell-based. The following applies: IL4 24 hours then inhibitor 24 h, CD206, MHC-II, CD86, CD80. On the procedure:
FIG. 4. Effect of BLZ-945 and BLN101 (formulated as AK750) in repolarization of the M2-macrophage phenotype formed upon stimulation with IL-4 to the M1-macrophage phenotype. Monocytes were treated with IL-4 for 24 hours, followed by which they were treated with BLZ-945 or BLN101 (formulated as AK750) in basal DMEM media, and cells were collected at different time points. M1 and M2 markers expression on the macrophages and their isotype control was evaluated separately by FACS. Graph represents the representative M1/M2 ratio by taking into account the various individual M1 and M2 markers that were analyzed using FACS. Data are representative of 3 separate experiments.
as §1, with “studied.” for “studied. It is observed that exposure to Tumor Conditioned Media over 24 h decreases INOS levels.”

These results are taken from patent US10736968B2, “Cellular signalling inhibitors, their formulations and methods thereof” (INVICTUS ONCOLOGY PVT. LTD., priority 2016, dated 2020).

For the compound `CNC(=O)c1cc(Oc2ccc3nc(N[C@@H]4CCCC[C@H]4O)sc3c2)ccn1` [BLZ-945], the tumor growth entry with B16/F10 melanoma was “decreased tumor growth compared with vehicle-treated animals”.
As to `CNC(=O)c1cc(Oc2ccc3nc(NC4CCCC[C@H]4OC(=O)CCC(=O)O[C@H]4CC[C@@]5(C)C(=CC[C@H]6[C@@H]7CC[C@H](C(C)CCCC(C)C)[C@@]7(C)CC[C@@H]65)C4)sc3c2)ccn1` (stereo in doubt) [BLN101], the “M1 and M2 macrophage markers” value in the test with monocytes is reported as “significantly increases the markers associated with M1 macrophages while reducing the M2 macrophage markers”.
